Assay results taken from US9938267B2, “Heterocyclic inhibitors of glutaminase” (Calithera Biosciences, Inc., priority 2011, dated 2018).
Values after ≈ are worked out from the molar mass of the structure shown. Like-named read-outs stand apart in the source and are kept apart here.

Key:
[1] = target: recombinant form of Glutaminase 1 (GAC) (Homo sapiens, UniProt O94925); assay: Recombinant enzyme assay (GAC, GDH-coupled absorbance, no preincubation); type: biochemical; details: read-out: GAC Delta N2 IC50 no preinc
Experimental: Enzymatic reaction was started with the addition of 50 μL of enzyme solution (50 mM Tris-HCl pH 8.0, 0.2 mM EDTA, 150 mM K2HPO4, 0.1 mg/ml BSA, 1 mM DTT, 10 ppm antifoam, 4 units/ml GDH, 4 mM adenosine diphosphate, and 4 nM GAC) and read in a Molecular Devices M5 plate reader at 20° C. The plate reader was configured to read absorbance (λ=340 nm) in kinetic mode for 15 minutes. Data was recorded as milli-absorbance units per minute and slopes were compared to a control compound and a DMSO-only control on the same plate. Compounds with slopes less than the DMSO control were considered inhibitors and plate variability was assessed using the control compound.

P493-6 (myc "on") cells = assay: Cell proliferation assay (72 hrs, Cell Titer Glo or Viacount FACS); type: cell-based
Experimental: P493-6 (myc “on”) cells were maintained in growth media (RPMI-1640, 10% FBS, 2 mM glutamine, 100 units/ml Penicillin and 100 μg/ml streptomycin) at 37° C. with 5% CO2. For compound assay, P493-6 cells were plated in 96-well V-bottom plates on the day of compound addition in 50 μl of growth media at a cell density of 200,000 cells/ml (10,000 cells/well). Compounds were serially diluted in 100% DMSO at 200-times the final concentration. Compounds were diluted 100-fold into growth media and then 50 μl of this mixture was added to cell plates making the final concentration of DMSO 0.5%. Cells were incubated with compound for 72 hrs at 37° C. with 5% CO2 and analyzed for antiproliferative effects either by Cell Titer Glo (Promega) or FACS analysis using the Viacount (Millipore) kit on the Guava instrument.

[2] = Solubility (vortex mixed at room temperature, filtered, HPLC quantitation); type: physicochemical
Experimental: Ca. 1 mg portions of test article were combined with 120 μL solvent in wells of a 96×2 mL polypropylene plate. […] The contents of all wells were then filtered through a 0.45 μm GHP filter plate to yield clear filtrates. 5 μL of each filtrate was diluted into 100 μL DMF and vortex mixed to yield HPLC samples. Duplicate quantitation standards for each test article were prepared by diluting weighed portions of solid test article in measured volumes of DMF. 2 μL of each HPLC sample and quantitation standard were analyzed by HPLC using the method outlined in Table 5. Dissolved test article concentrations were calculated by peak area ratio against the appropriate quantitation standards.

[3] = read-out: Cell prolif P493 72 h IC50, P493 cells, 72 h
[4] = P493-6, read-out: Cell prolif P493 72 h IC50, P493 cells, 72 h
[5] = P493-6 (myc on) cells, 72 hrs, read-out: Cell prolif P493 IC50

## CC[C@](O)(C(=O)Nc1nnc(CCCCc2nnc(NC(=O)[C@@](O)(CC)c3ccccc3)s2)s1)c1ccccc1 (single isomer, unassigned) [Compound 144]
[1]
  IC50: > 20000 nM

## COC(C(=O)Nc1nnc(CCSCCc2nnc(NC(=O)C(OC)c3ccccc3)s2)s1)c1ccccc1 (centres unmarked) [Compound 67]
P493-6 (myc "on") cells; [3]
  IC50: 1800 nM

## O=C(Cc1nnc(CCSCCc2nnc(NC(=O)C3CCOCC3)s2)s1)C1CCOCC1 [Compound 108]
[1]
  IC50: > 20000 nM

## O=C(C[C@@H](O)c1ccccc1)Nc1nnc(CCSCCc2nnc(NC(=O)C[C@@H](O)C3CCCCC3)s2)s1 [Compound 126]
P493-6 (myc "on") cells; [4]
  IC50: 12000 nM

## O=C(Nc1nnc(CCCCc2nnc(NC(=O)C3COc4ccccc43)s2)s1)C1COc2ccccc21 (centres unmarked) [Compound 135]
[1]
  IC50: 300 nM

## O=C(N[C@@H](CO)C(=O)Nc1nnc(CCSCCc2nnc(NC(=O)[C@H](CO)NC(=O)OCc3ccccc3)s2)s1)OCc1ccccc1 [Compound 138]
[1]
  IC50: 750 nM

## CC(C)(C)c1ccc(CC(=O)Nc2nnc(CCCCc3nnc(NC(=O)Cc4ccc(C(C)(C)C)cc4)s3)s2)cc1 [Compound 191]
[1]
  IC50: > 20000 nM

## CC(C)(C)OC(=O)Nc1ccc(CC(=O)Nc2nnc(CCCCc3nnc(NC(=O)Cc4ccc(NC(=O)OC(C)(C)C)cc4)s3)s2)cc1 [Compound 192]
[1]
  IC50: > 20000 nM

## O=C(Cc1cc2ccccc2o1)Nc1nnc(CCSCCc2nnc(NC(=O)Cc3cc4ccccc4o3)s2)s1 [Compound 193]
[1]
  IC50: 3400 nM

## COc1cc(CC(=O)Nc2nnc(CCSCCc3nnc(NC(=O)Cc4cc(OC)cc(OC)c4)s3)s2)cc(OC)c1 [Compound 202]
[1]
  IC50: 180 nM

## O=C(Cc1ccc(Cl)s1)Nc1cnc(CCSCCc2nnc(NC(=O)Cc3ccc(Cl)s3)s2)s1 [Compound 206]
[1]
  IC50: > 20000 nM

## O=C(Cc1cc2ccccc2s1)Nc1cnc(CCSCCc2nnc(NC(=O)Cc3cc4ccccc4s3)s2)s1 [Compound 207]
[1]
  IC50: 13000 nM

## CC1(C)O[C@@H](C(=O)Nc2nnc(CCCCc3nnc(NC(=O)[C@@H]4OC(C)(C)O[C@H]4c4ccccc4)s3)s2)[C@H](c2ccccc2)O1 [Compound 223]
[1]
  IC50: > 20000 nM

## O=C(Cc1cccc(OCCO)c1)Nc1nnc(CCSCCc2nnc(NC(=O)Cc3cccc(OCCO)c3)s2)s1 [Compound 236]
P493-6 (myc "on") cells; [3]
  IC50: 1400 nM

## O=C(Cc1cccs1)Nc1nnc(CCSCc2nnc(NC(=O)Cc3cccs3)s2)s1 [Compound 237]
P493-6 (myc "on") cells; [3]
  IC50: 250 nM

## O=C(Cc1cccc(OCCN2CCOCC2)c1)Nc1nnc(CCSCCc2nnc(NC(=O)Cc3cccc(OCCN4CCOCC4)c3)s2)s1 [Compound 240]
P493-6 (myc "on") cells; [3]
  IC50: 1300 nM

## O=C(CN1C(=O)OC[C@H]1c1ccccc1)Nc1nnc(CCSCCc2nnc(NC(=O)CN3C(=O)OC[C@H]3c3ccccc3)s2)s1 [Compound 243]
P493-6 (myc "on") cells; [3]
  IC50: 33000 nM

## CCOC(=O)Nc1nnc(CCCCc2nnc(NC(=O)Cc3ccccc3)s2)s1 [Compound 244]
P493-6 (myc "on") cells; [3]
  IC50: 1700 nM

## COc1ccccc1CC(=O)Nc1nnc(CCSCCc2nnc(NC(=O)C(CO)c3ccccc3OC)s2)s1 (centres unmarked) [Compound 246]
P493-6 (myc "on") cells; [3]
  IC50: 1600 nM

## Cc1cccc(CC(=O)Nc2nnc(CCSCCc3nnc(NC(=O)Cc4cccc(C)c4)s3)s2)c1 [Compound 247]
P493-6 (myc "on") cells; [3]
  IC50: 830 nM

## COc1ccccc1CC(=O)Nc1nnc(CCSCc2nnc(NC(=O)Cc3ccccc3OC)s2)s1 [Compound 249]
P493-6 (myc "on") cells; [3]
  IC50: 160 nM

## COc1cccc(CC(=O)Nc2nnc(CCSCc3nnc(NC(=O)Cc4cccc(OC)c4)s3)s2)c1 [Compound 250]
[1]
  IC50: 120 nM
P493-6 (myc "on") cells; [3]
  IC50: 140 nM

## COc1cccc(C(CO)C(=O)Nc2nnc(CCCCc3nnc(NC(=O)C(CO)c4cccc(OC)c4)s3)s2)c1 (centres unmarked) [Compound 257]
P493-6 (myc "on") cells; [3]
  IC50: 73 nM

## COc1cccc(C(CO)C(=O)Nc2nnc(CCSCc3nnc(NC(=O)C(CO)c4cccc(OC)c4)s3)s2)c1 (centres unmarked) [Compound 258]
P493-6 (myc "on") cells; [3]
  IC50: 180 nM

## COc1cccc(CC(=O)Nc2nnc(CCSCCc3nnc(NC(=O)Cc4cccc(OC)c4OC)s3)s2)c1OC [Compound 259]
P493-6 (myc "on") cells; [3]
  IC50: 570 nM

## COc1cccc(CC(=O)Nc2nnc(CCCCc3nnc(NC(=O)Cc4cccc(OC)c4OC)s3)s2)c1OC [Compound 260]
P493-6 (myc "on") cells; [3]
  IC50: 84 nM

## CC(C(=O)Nc1nnc(CCSCCc2nnc(NC(=O)C(C)c3ccccc3Cl)s2)s1)c1ccccc1Cl (centres unmarked) [Compound 261]
P493-6 (myc "on") cells; [3]
  IC50: 2600 nM

## Cc1ccccc1C(C)C(=O)Nc1nnc(CCSCCc2nnc(NC(=O)C(C)c3ccccc3C)s2)s1 (centres unmarked) [Compound 262]
P493-6 (myc "on") cells; [3]
  IC50: 3100 nM

## COc1ccccc1CC(=O)Nc1nnc(CCCCc2nnc(NC(=O)Cc3ccccc3OC)s2)s1 [Compound 264]
P493-6 (myc "on") cells; [3]
  IC50: 10 nM

## O=C(Cc1cccc(OCCN2CCOCC2)c1)Nc1nnc(CCSCc2nnc(NC(=O)Cc3cccc(OCCN4CCOCC4)c3)s2)s1 [Compound 267]
P493-6 (myc "on") cells; [3]
  IC50: 640 nM

## O=C(Cc1ccc2ncccc2c1)Nc1nnc(CCSCCc2nnc(NC(=O)Cc3ccc4ncccc4c3)s2)s1 [Compound 268]
P493-6 (myc "on") cells; [3]
  IC50: 5400 nM

## O=C(Cc1ccc2ncccc2c1)Nc1nnc(CCCCc2nnc(NC(=O)Cc3ccc4ncccc4c3)s2)s1 [Compound 269]
P493-6 (myc "on") cells; [3]
  IC50: 520 nM

## O=C(Cc1cccc(Br)c1)Nc1nnc(CCSCCc2nnc(NC(=O)Cc3cccc(Br)c3)s2)s1 [Compound 270]
P493-6 (myc "on") cells; [3]
  IC50: 850 nM

## CC(C(=O)Nc1nnc(CCCCc2nnc(NC(=O)C(C)c3ccccc3Cl)s2)s1)c1ccccc1Cl (centres unmarked) [Compound 274]
P493-6 (myc "on") cells; [3]
  IC50: 680 nM

## CC(C)(C)OC(=O)N1CCN(Cc2cccc(CC(=O)Nc3nnc(CCSCc4nnc(NC(=O)Cc5cccc(CN6CCN(C(=O)OC(C)(C)C)CC6)c5)s4)s3)c2)CC1 [Compound 275]
P493-6 (myc "on") cells; [3]
  IC50: 340 nM

## O=C(Cc1cccc(-n2cccn2)c1)Nc1nnc(CCCCc2nnc(NC(=O)Cc3cccc(-n4cccn4)c3)s2)s1 [Compound 285]
P493-6 (myc "on") cells; [3]
  IC50: 140 nM

## CCOc1ccccc1CC(=O)Nc1nnc(CCCCc2nnc(NC(=O)Cc3ccccc3OC)s2)s1 [Compound 300]
[1]
  IC50: 160 nM
P493-6 (myc "on") cells; [4]
  IC50: 160 nM

## O=C(O)Cc1cccc(CC(=O)Nc2nnc(CCCCc3nnc(NC(=O)Cc4cccc(CC(=O)O)c4)s3)s2)c1 [Compound 313]
[1]
  IC50: 270 nM
P493-6 (myc "on") cells; [3]
  IC50: 94000 nM

## CC(C)(C)OC(=O)Nc1cccc(CC(=O)Nc2nnc(CCCCc3nnc(NC(=O)Cc4cccc(NC(=O)OC(C)(C)C)c4)s3)s2)c1 [Compound 327]
P493-6 (myc "on") cells; [3]
  IC50: 150 nM

## Nc1cccc(CC(=O)Nc2nnc(CCCCc3nnc(NC(=O)Cc4cccc(N)c4)s3)s2)c1 [Compound 329]
[1]
  IC50: 170 nM
P493-6 (myc "on") cells; [3]
  IC50: 450 nM

## O=C(Cc1ccccc1)Nc1ccc(CCCCc2nnc(NC(=O)Cc3cccc(O)c3)s2)nn1 [Compound 337]
[1]
  IC50: 76 nM

## O=C(Cc1cccc(Cn2cccn2)c1)Nc1nnc(CCCCc2nnc(NC(=O)Cc3cccc(Cn4cccn4)c3)s2)s1 [Compound 362]
P493-6 (myc "on") cells; [3]
  IC50: 54 nM

## O=C(Cc1cccc(-n2ccnc2)c1)Nc1nnc(CCCCc2nnc(NC(=O)Cc3cccc(-n4ccnc4)c3)s2)s1 [Compound 363]
P493-6 (myc "on") cells; [3]
  IC50: > 20000 nM

## CCOC(=O)Nc1nnc(CCCCc2nnc(NC(=O)Cc3ccccc3)s2)s1 [Compound 369]
P493-6 (myc "on") cells; [4]
  IC50: 1900 nM

## CCCC(=O)OCN(C(=O)Cc1ccccc1)c1nnc(CCCCc2ccc(NC(=O)Cc3ccccc3)nn2)s1 [Compound 402]
[2]; 10% CrEL/50 mM cit
  Solubility: 157 µg/mL (≈ 0.268 mM)
[2]; PEG400
  Solubility: 30179 µg/mL (≈ 51.4 mM)

## O=C(Cc1cccc(OC(F)(F)F)c1)Nc1ccc(CCCCc2nnc(NC(=O)C(O)c3cccc(Cl)c3)s2)nn1 (centres unmarked) [Compound 447]
[2]; PG
  Solubility: 8265 µg/mL (≈ 13.3 mM)

## CC1(CC(=O)Nc2ccc(CCCCc3nnc(NC(=O)Cc4cccc(CNC(=O)OC(C)(C)C)c4)s3)nn2)COC(C)(C)OC1 [Compound 529]
P493-6 (myc "on") cells; [5]
  IC50: 160 nM

## CCCC(=O)OCN(C(=O)C(CO)c1cccc(CNC(=O)OC(C)(C)C)c1)c1nnc(CCCCc2ccc(NC(=O)Cc3ccccc3)nn2)s1 (centres unmarked) [Compound 567]
P493-6 (myc "on") cells; [5]
  IC50: 21 nM

## CC(C(=O)Nc1nnc(CCCCc2ccc(NC(=O)Cc3ccccc3)nn2)s1)c1ccc(F)c(CNC(=O)OC(C)(C)C)c1 (centres unmarked) [Compound 568]
P493-6 (myc "on") cells; [5]
  IC50: 28 nM

## O=C(Cc1cccc(OC(F)(F)F)c1)Nc1ccc(CCCCc2nnc(NC(=O)Cc3ccccc3)s2)nn1 [Compound 585]
[2]; Capryol 90
  Solubility: 1744 µg/mL (≈ 3.06 mM)

## CCNC(=O)CC(C)c1cccc(CC(=O)Nc2ccc(CCCCc3nnc(NC(=O)Cc4cccc(OC(F)(F)F)c4)s3)nn2)c1 (centres unmarked) [Compound 596]
P493-6 (myc "on") cells; [5]
  IC50: 330 nM

## O=C(Cc1ccc(OC(F)(F)F)cc1)Nc1ccc(CCCCc2nnc(NC(=O)Cc3ccccc3)s2)nn1 [Compound 615]
P493-6 (myc "on") cells; [5]
  IC50: 12 nM

## O=C(Cc1cccc(OC(F)(F)F)c1)Nc1ccc(CCCCc2nnc(NC(=O)Cn3c(CN4CCOCC4)nc4ccccc43)s2)nn1 [Compound 702]
P493-6 (myc "on") cells; [5]
  IC50: 310 nM

## O=C(Cc1cccc(OC(F)(F)F)c1)Nc1ccc(CCCCc2nnc(NC(=O)[C@@H](O)c3ccccc3)s2)nn1 [Compound 703]
[2]; 20% HPBCD/50 mM cit
  Solubility: 651 µg/mL (≈ 1.11 mM)
